Earlier results on 8 compounds are cited in US20200057081A1, “System and Method for Managing Animal Cancers by Disabling the Cancer Cells Ability to Reproduce” (priority 2018, published 2020).

pIC50: −log10 of the molar value.

Data set [1] relates to tumors transplanted to mice.
Another data set deals with Drp1/Fis1 interaction (Homo sapiens, UniProt O00429).
Data set [2] has as its system cultured cancer cell lines. Particulars: multiple cell lines.
Another data set concerns the target T1, dynamin GTPase (Homo sapiens, UniProt O00429).
T1 construct: host or cells: mammalian cells (not specified)
Conditions: in mammalian cells; read-out: IC50, inhibition of mitochondrial division / dynamin GTPase activity.

A further data set relates to mitochondria. Particulars: Bid-activated, Bax/Bak-dependent, in vitro.

T1 sequence (O00429 whole entry): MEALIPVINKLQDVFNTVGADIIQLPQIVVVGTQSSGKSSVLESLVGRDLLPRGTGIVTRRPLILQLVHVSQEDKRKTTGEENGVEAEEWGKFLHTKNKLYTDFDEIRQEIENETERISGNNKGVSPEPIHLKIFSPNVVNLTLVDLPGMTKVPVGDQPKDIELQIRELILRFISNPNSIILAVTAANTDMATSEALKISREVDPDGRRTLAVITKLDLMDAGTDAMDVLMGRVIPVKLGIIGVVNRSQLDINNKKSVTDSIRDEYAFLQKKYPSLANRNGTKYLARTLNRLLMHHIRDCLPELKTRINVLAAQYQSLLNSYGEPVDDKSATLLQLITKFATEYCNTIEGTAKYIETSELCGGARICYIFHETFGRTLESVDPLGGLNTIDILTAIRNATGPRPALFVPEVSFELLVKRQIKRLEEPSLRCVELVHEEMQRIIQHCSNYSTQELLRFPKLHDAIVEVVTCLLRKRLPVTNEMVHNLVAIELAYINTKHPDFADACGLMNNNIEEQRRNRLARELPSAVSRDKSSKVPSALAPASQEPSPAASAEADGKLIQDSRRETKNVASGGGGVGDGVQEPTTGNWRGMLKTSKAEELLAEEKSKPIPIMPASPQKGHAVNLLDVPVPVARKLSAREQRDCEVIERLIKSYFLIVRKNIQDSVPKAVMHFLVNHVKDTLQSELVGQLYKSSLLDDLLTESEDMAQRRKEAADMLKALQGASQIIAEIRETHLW
Sequence of Drp1/Fis1 interaction (O00429 whole entry): as above

On to `O=C(O)C(=O)CBr` [3-bromopyruvate], for which the tumor growth result in data set [1] is reported as “slow down the growth”.

For `Cc1ncc(C[n+]2csc(CCO)c2C)c(=O)[nH]1` [oxythiamine], the tumor growth result in data set [1] is “slow down the growth”.

In the case of “P110: polypeptide P110, DLLPRGT, inhibitor of Drp1”, the “selectivity for Drp1/Fis1 interaction over Drp1 interaction with other ligands” value in the data set with Drp1/Fis1 interaction was “more selective for blocking Drp1/Fis1 interaction”.

Take `CS(=O)(=O)c1ccc(C(=O)Nc2ccc(Cl)c(-c3ccccn3)c2)c(Cl)c1` [GDC-0449]: the anti-proliferative effect entry in data set [2] is listed as “modest anti-proliferative effect”. Consider `CN(C)c1ccc(C2Nc3ccc4ccccc4c3C3=C2C(=O)CC(C)(C)C3)cc1Br` (stereo not shown) [compound 968], for which the “inhibition of cancer cell growth” value in the data set on cancer cells (cancer cells) was “highly specific for inhibiting cancer cell growth”. Moreover, the “effect on normal cells” value in the data set with cancer cells (normal (nontransformed) cells) is recorded as “little effect”. As to `C=C1CC[C@H](O)C/C1=C/C=C1\CCC[C@]2(C)[C@@H]([C@H](C)CCCC(C)C)CC[C@@H]12` [VD3], the anti-proliferative effect result in data set [2] is “modest anti-proliferative effect”. Regarding `CC1=C2C[C@H]3[C@@H](CC=C4C[C@@H](O)CC[C@@]43C)[C@@H]2CC[C@]12O[C@@H]1C[C@H](C)CN[C@H]1[C@H]2C` [Cyc], the anti-proliferative effect result in data set [2] is “modest anti-proliferative effect”. For the compound `COc1cc(-n2c(=S)[nH]c3ccccc3c2=O)c(Cl)cc1Cl` [Mdivi 1], on dynamin GTPase, the pIC50 was ~4.30. Further, in the data set on mitochondria, the “cytochrome c release from mitochondria” value is given as “block Bid-activated Bax/Bak-dependent cytochrome c release”.
